Test results taken from PubChem BioAssay (NCI).
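Results reflect a 48-hour exposure of cells in 96-well plates to compound at five concentrations. Here, GI50 denotes the concentration required for 50% inhibition of growth. Definition used: TGI = concentration required for complete inhibition of growth.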

Columns and labels:
Assay in all cases: NCI tumour cell line growth inhibition, 48 h
M19-MEL melanoma = test system: M19-MEL melanoma
KM20L2 colon = test system: KM20L2 colon
DLD-1 colon = test system: DLD-1 colon
DMS 114 small cell lung = test system: DMS 114 small cell lung
SNB-78 CNS = test system: SNB-78 CNS
DMS 273 small cell lung = test system: DMS 273 small cell lung
RXF-631 renal = test system: RXF-631 renal
XF 498 CNS = test system: XF 498 CNS
P388 leukemia = test system: P388 leukemia
P388/ADR leukemia = test system: P388/ADR leukemia
SN12K1 renal = test system: SN12K1 renal

SMILES | TGI (M19-MEL melanoma) [µM] | TGI (KM20L2 colon) [µM] | TGI (DLD-1 colon) [µM] | TGI (DMS 114 small cell lung) [µM] | TGI (SNB-78 CNS) [µM] | TGI (DMS 273 small cell lung) [µM] | TGI (RXF-631 renal) [µM] | TGI (XF 498 CNS) [µM] | TGI (P388 leukemia) [µM] | TGI (P388/ADR leukemia) [µM] | TGI (SN12K1 renal) [µM] | GI50 (KM20L2 colon) [µM] | GI50 (DMS 114 small cell lung) [µM]
Cc1cc(/C=C/c2cc[n+](C)c3ccccc23)c(O)c2ncccc12 | 8.52 | 20 | 22.5 | 1.8 | 27.1 | 10.4 | – | – | – | – | – | – | –
Cc1c(N2CCN(C)CC2)nc2ccc(Cl)cc2c1-c1ccccc1 | – | 31.2 | – | 31 | 39.8 | 32.1 | – | – | – | – | – | – | –
CC1=C(O)C(=O)C2C(=O)C1C1Cc3ccccc3C21 (stereo not drawn) | > 100 | – | > 100 | – | > 100 | > 100 | > 100 | > 100 | – | – | – | – | –
CC(C)N=C(N)NC#N | > 100 | > 100 | > 100 | > 100 | > 100 | – | – | > 100 | – | – | – | – | –
COC(=O)c1ccc(N=NN(C)COc2ccc(Br)cc2)cc1 | > 100 | > 100 | > 100 | > 100 | > 100 | > 100 | – | > 100 | > 100 | > 100 | > 100 | – | –
CSc1nc(NC2OC(COC(C)=O)C(OC(C)=O)C(OC(C)=O)C2OC(C)=O)c2c(n1)OCC2=O (stereo not drawn) | > 100 | > 100 | > 100 | > 100 | > 100 | – | > 100 | – | – | – | – | – | –
COc1ccccc1-c1cc(=O)c2cc3c(cc2[nH]1)OCO3 | > 100 | 37.5 | > 100 | > 100 | – | > 100 | – | 75.5 | – | – | – | 18.7 | 25
COc1ccc(-c2cc(=O)c3cc(OC)ccc3[nH]2)cc1 | > 100 | > 100 | > 100 | > 100 | > 100 | – | – | – | – | – | – | – | –
COc1ccc(/C(Cl)=C(\C=N/O)c2ccc(OC)c(OC)c2)cc1OC | > 100 | > 100 | > 100 | > 100 | > 100 | > 100 | – | > 100 | – | – | – | – | –
